Measured values taken from patent US10807992B2, “Single enantiomer antiparasitic compounds” (priority 2017, dated 2020).

System: Rhipicephalus sanguineus
Experiment: In vitro contact activity against adult ticks (coated vial), R. sanguineus
Details: for mortality at 0.006 µM: Trial 3, dose 0.006 μM; for mortality at 0.024 µM: Trial 3, dose 0.024 μM; for mortality at 0.098 µM: Trial 3, dose 0.098 μM; for mortality at 0.39 µM: Trial 3, dose 0.39 μM; for mortality at 1.56 µM: Trial 3, dose 1.56 μM; for mortality at 6.25 µM: Trial 3, dose 6.25 μM; for mortality at 25 µM: Trial 3, dose 25 μM; for mortality at 100 µM: Trial 3, dose 100 μM
Procedure: Rhipicephalus sanguineus, Dermacentor variabilis, Amblyomma americanum, (Ecto Services, Inc., Henderson, N.C.) and Ixodes scapularis (Oklahoma State University, Stillwater, Okla.) aged between 2-4 weeks post molt were held in an environmental chamber at 24° C., 80% humidity with 12-hour light/dark cycles.
For tick assays, vial caps were pre-drilled with a single hole in the center of each cap to allow air exchange. A filter paper (Whatman Grade 540 2.1 cm) was placed in the lid of each vial. An aliquot from each compound stock was added to an acetone/triton solution to achieve the desired top doses for the study. Serial dilutions were conducted from the top dose (i.e. 100 ppm) to achieve the desired titration range for EC50 and EC90 determination. For R. sanguineus, D. variabilis, and A. americanum, the final DMSO concentration in each test vial was 0.5%. For I. scapularis, compounds were solubilized directly in an acetone/triton solution due to I. scapularis' sensitivity to DMSO. A 459 μL aliquot of each compound formulation was transferred to a vial containing a Whatman Grade 540 2.1 cm filter paper. Vials were immediately placed on an unheated roller unit to allow for an even coating of the vial walls. After vials were coated, 41 μL of each compound formulation was added to the filter paper embedded in each vial cap. Each cap was allowed to dry. The vials were loosely capped and allowed to dry for a minimum of four hours in a chemical fume hood.
Compounds tested were: the C1 racemate, C1 (R) enantiomer, and the C1 (S) enantiomer. For Trial 3, the C1 (R) enantiomer and the C1 (S) enantiomer were further chiral purified to achieve >99% purity.
Ten adult ticks were added to each vial and held at 24° C., 80% humidity with 12-hour light/dark cycles. Adult ticks were assessed for percent mortality at various time points between 2 hours and 48 hours post infestation. Ticks were stimulated on a heated roller unit and evaluated. Ticks showing no movement, or very slow and uncoordinated movement were noted as dead.

O=C(CC(F)(F)F)N1CC2(C1)OCc1cc(C3=NS[C@](c4cc(Cl)c(F)c(Cl)c4)(C(F)(F)F)C3)ccc12 [C1 (R) enantiomer, (R)-1-[6-[5-(3,5-dichloro-4-fluoro-phenyl)-5-(trifluoromethyl)-4H-isothiazol-3-yl]spiro[1H-isobenzofuran-3,3′-azetidine]-1′-yl]-3,3,3-trifluoro-propan-1-one]
0%: mortality at 0.006 µM (2 h, Rep1) | mortality at 0.006 µM (2 h, Rep2) | mortality at 0.024 µM (2 h, Rep1) | mortality at 0.024 µM (2 h, Rep2) | mortality at 0.098 µM (2 h, Rep1) | mortality at 0.098 µM (2 h, Rep2) | mortality at 0.39 µM (2 h, Rep1) | mortality at 0.39 µM (2 h, Rep2) | mortality at 1.56 µM (2 h, Rep1) | mortality at 1.56 µM (2 h, Rep2) | mortality at 6.25 µM (2 h, Rep1) | mortality at 6.25 µM (2 h, Rep2) | mortality at 25 µM (2 h, Rep1) | mortality at 25 µM (2 h, Rep2) | mortality at 100 µM (2 h, Rep1) | mortality at 100 µM (2 h, Rep2) | mortality at 0.006 µM (6 h, Rep1) | mortality at 0.006 µM (6 h, Rep2) | mortality at 0.024 µM (6 h, Rep1) | mortality at 0.024 µM (6 h, Rep2) | mortality at 0.098 µM (6 h, Rep1) | mortality at 0.098 µM (6 h, Rep2) | mortality at 0.39 µM (6 h, Rep1) | mortality at 0.39 µM (6 h, Rep2) | mortality at 1.56 µM (6 h, Rep1) | mortality at 1.56 µM (6 h, Rep2) | mortality at 6.25 µM (6 h, Rep1) | mortality at 6.25 µM (6 h, Rep2) | mortality at 25 µM (6 h, Rep1) | mortality at 25 µM (6 h, Rep2) | mortality at 100 µM (6 h, Rep1) | mortality at 100 µM (6 h, Rep2) | mortality at 0.006 µM (12 h, Rep1) | mortality at 0.006 µM (12 h, Rep2) | mortality at 0.024 µM (12 h, Rep1) | mortality at 0.024 µM (12 h, Rep2) | mortality at 0.098 µM (12 h, Rep1) | mortality at 0.098 µM (12 h, Rep2) | mortality at 0.39 µM (12 h, Rep1) | mortality at 0.39 µM (12 h, Rep2) | mortality at 1.56 µM (12 h, Rep1) | mortality at 1.56 µM (12 h, Rep2) | mortality at 6.25 µM (12 h, Rep1) | mortality at 6.25 µM (12 h, Rep2) | mortality at 25 µM (12 h, Rep1) | mortality at 25 µM (12 h, Rep2) | mortality at 100 µM (12 h, Rep1) | mortality at 100 µM (12 h, Rep2)
